Molecular target: recombinant mTOR (Homo sapiens, UniProt P42345)
Assay: In Vitro mTOR Kinase Assay (Echo), Test (a)(ii) (AlphaScreen)
Assay type: biochemical
Details: Echo acoustic dispensing
Description: (a)(ii) In Vitro mTOR Kinase Assay (Echo)
The assay used AlphaScreen technology (Gray et al., Analytical Biochemistry, 2003, 313: 234-245) to determine the ability of test compounds to inhibit phosphorylation by recombinant mTOR.
The HEK293 FLAG-tagged mTOR (1362-2549) stable cell line was routinely maintained at 37° C. with 5% CO2 up to a confluency of 70-90% in Dulbecco's modified Eagle's growth medium (DMEM; Invitrogen Limited, Paisley, UK Catalogue No. 41966-029) containing 10% heat-inactivated foetal calf serum (FCS; Sigma, Poole, Dorset, UK, Catalogue No. F0392), 1% L-glutamine (Gibco, Catalogue No. 25030-024) and 2 mg/ml Geneticin (G418 sulfate; Invitrogen Limited, UK Catalogue No. 10131-027). Following expression in the mammalian HEK293 cell line, expressed protein was purified using the FLAG epitope tag using standard purification techniques.
Aliquots ([…]) of each compound dilution were acoustically […] using a Labcyte Echo 550 into a well of a Greiner 384-well low volume (LV) white polystyrene plate (Greiner Bio-one). A […] mixture of recombinant purified mTOR enzyme, 1 μM biotinylated peptide substrate (Biotin-Ahx-[…]NH2; Bachem UK Ltd), ATP (20 μM) and a buffer solution [comprising Tris-HCl pH7.4 buffer (50 mM), EGTA (0.1 mM), bovine serum albumin (0.5 mg/mL), DTT (1.25 mM) and manganese chloride (10 mM)] was incubated at room temperature for […].
These assay solutions were incubated for 2 hours at room temperature.
Each reaction was stopped by the addition of […] of a mixture of EDTA (50 mM), bovine serum albumin (BSA; 0.5 mg/mL) and Tris-HCl pH7.4 buffer (50 mM) containing
p70 S6 Kinase (T389) 1A5 Monoclonal Antibody (Cell Signalling Technology, Catalogue No. 9206B) and AlphaScreen Streptavidin donor and Protein A acceptor beads (200 ng; Perkin Elmer, Catalogue No. 6760002B and 6760137R respectively) were added and the assay plates were left overnight at room temperature in the dark. The resultant signals arising from laser light excitation at 680 nm were read using a Packard Envision instrument.
The phosphorylated biotinylated peptide that is associated with AlphaScreen Streptavidin donor beads forms a complex with the p70 S6 Kinase (T389) 1A5 Monoclonal Antibody that is associated with Alphascreen Protein A acceptor beads. Upon laser light excitation at 680 nm, the donor bead : acceptor bead complex produces a signal that can be measured. Accordingly, the presence of mTOR kinase activity results in an assay signal. In the presence of an mTOR kinase inhibitor, signal strength is reduced. mTOR enzyme inhibition for a given test compound was expressed as an IC50 value.

Sequence of recombinant mTOR (P42345 1362-2549): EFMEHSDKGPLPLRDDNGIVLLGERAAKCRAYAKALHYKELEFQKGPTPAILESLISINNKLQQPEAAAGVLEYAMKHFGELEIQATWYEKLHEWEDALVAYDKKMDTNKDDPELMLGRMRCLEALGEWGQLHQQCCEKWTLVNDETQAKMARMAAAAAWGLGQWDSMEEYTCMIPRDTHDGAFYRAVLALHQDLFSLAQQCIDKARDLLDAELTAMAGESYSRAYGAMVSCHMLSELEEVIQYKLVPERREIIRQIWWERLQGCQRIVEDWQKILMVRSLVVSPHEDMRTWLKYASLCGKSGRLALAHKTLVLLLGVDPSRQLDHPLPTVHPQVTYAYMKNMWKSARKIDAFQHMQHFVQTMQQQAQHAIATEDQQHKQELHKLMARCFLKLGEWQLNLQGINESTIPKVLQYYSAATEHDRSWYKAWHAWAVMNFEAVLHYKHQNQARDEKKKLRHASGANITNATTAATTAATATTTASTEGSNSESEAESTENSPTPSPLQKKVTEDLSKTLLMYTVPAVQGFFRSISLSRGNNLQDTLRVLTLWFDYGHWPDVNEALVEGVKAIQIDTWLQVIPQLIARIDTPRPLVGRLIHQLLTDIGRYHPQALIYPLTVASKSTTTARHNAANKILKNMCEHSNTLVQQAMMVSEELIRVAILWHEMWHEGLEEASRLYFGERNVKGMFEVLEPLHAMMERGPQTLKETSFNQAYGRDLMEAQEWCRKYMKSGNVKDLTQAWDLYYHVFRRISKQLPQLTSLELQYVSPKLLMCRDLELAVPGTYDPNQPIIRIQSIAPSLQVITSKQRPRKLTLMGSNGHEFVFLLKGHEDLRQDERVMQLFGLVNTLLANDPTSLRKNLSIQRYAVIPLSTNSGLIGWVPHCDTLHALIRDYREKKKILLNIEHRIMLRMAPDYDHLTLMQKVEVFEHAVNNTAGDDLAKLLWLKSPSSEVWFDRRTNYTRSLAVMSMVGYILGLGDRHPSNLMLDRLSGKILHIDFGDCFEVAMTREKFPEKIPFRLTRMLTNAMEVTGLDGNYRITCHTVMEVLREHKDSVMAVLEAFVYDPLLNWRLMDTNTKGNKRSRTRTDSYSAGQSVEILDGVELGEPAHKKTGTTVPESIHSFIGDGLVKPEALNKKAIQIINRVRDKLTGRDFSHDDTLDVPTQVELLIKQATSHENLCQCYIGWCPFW

CCNC(=S)Nc1ccc(-c2nc(CS(C)(=O)=O)cc(N3CCOC[C@@H]3C)n2)cc1 [Example 1a, 3-ethyl-1-[4-[4-[(3S)-3-methylmorpholin-4-yl]-6-(methylsulfonylmethyl)pyrimidin-2-yl]phenyl]thiourea] and C[C@H]1COCCN1c1cc(CS(C)(=O)=O)nc(-c2ccc(NC(=S)NC3CC3)cc2)n1 [Example 1, 3-Cyclopropyl-1-[4-[4-[(3S)-3-methylmorpholin-4-yl]-6-(methylsulfonylmethyl)pyrimidin-2-yl]phenyl]thiourea] are within 1.5-fold of each other in IC50: 0.0177 µM for the first, 0.0197 µM for the second.

CCNC(=S)Nc1ccc(-c2nc(N3CCOC[C@@H]3C)cc(C(C)(C)O)n2)cc1 [Example 5c, 3-ethyl-1-[4-[4-(2-hydroxypropan-2-yl)-6-[(3S)-3-methylmorpholin-4-yl]pyrimidin-2-yl]phenyl]thiourea] and CNC(=S)Nc1ccc(-c2nc(N3CCOC[C@@H]3C)cc(C(C)(C)O)n2)cc1 [Example 5a, 1-[4-[4-(2-hydroxypropan-2-yl)-6-[(3S)-3-methylmorpholin-4-yl]pyrimidin-2-yl]phenyl]-3-methylthiourea] are within 1.5-fold of each other in IC50: 0.0374 µM for the first, 0.0367 µM for the second.

First: CNC(=S)Nc1ccc(-c2nc(N3CCOC[C@@H]3C)cc(C(C)(C)S(=O)(=O)CCCO)n2)cc1 [Example 4b, 1-[4-[4-[2-(3-hydroxypropylsulfonyl)propan-2-yl]-6-[(3S)-3-methylmorpholin-4-yl]pyrimidin-2-yl]phenyl]-3-methylthiourea]
Second: CCNC(=S)Nc1ccc(-c2nc(N3CCOC[C@@H]3C)cc(C(C)(C)S(=O)(=O)CCCO)n2)cc1 [Example 4c, 3-ethyl-1-[4-[4-[2-(3-hydroxypropylsulfonyl)propan-2-yl]-6-[(3S)-3-methylmorpholin-4-yl]pyrimidin-2-yl]phenyl]thiourea]
The IC50 of the first is 2.6-fold higher: 0.154 µM for the first, 0.0585 µM for the second.

First: C[C@H]1COCCN1c1cc(C(C)(C)O)nc(-c2ccc(NC(=S)NC3CC3)cc2)n1 [Example 5b, 3-cyclopropyl-1-[4-[4-(2-hydroxypropan-2-yl)-6-[(3S)-3-methylmorpholin-4-yl]pyrimidin-2-yl]phenyl]thiourea]
Second: C[C@H]1COCCN1c1cc(C(C)(C)S(C)(=O)=O)nc(-c2ccc(NC(=S)NC3CC3)cc2)n1 [Example 2, 3-Cyclopropyl-1-[4-[4-[(3S)-3-methylmorpholin-4-yl]-6-(2-methylsulfonylpropan-2-yl)pyrimidin-2-yl]phenyl]thiourea]
The IC50 of the first is 8.1-fold higher: 0.0384 µM for the first, 0.00477 µM for the second.

First: C[C@H]1COCCN1c1cc(C(C)(C)S(=O)(=O)c2ccccc2)nc(-c2ccc(NC(=S)NC3CC3)cc2)n1 [Example 3a, 1-[4-[4-[2-(benzenesulfonyl)propan-2-yl]-6-[(3S)-3-methylmorpholin-4-yl]pyrimidin-2-yl]phenyl]-3-cyclopropylthiourea]
Second: CNC(=S)Nc1ccc(-c2nc(N3CCOC[C@@H]3C)cc(C(C)(C)S(=O)(=O)c3ccccc3)n2)cc1 [Example 3, 1-[4-[4-[2-(Benzenesulfonyl)propan-2-yl]-6-[(3S)-3-methylmorpholin-4-yl]pyrimidin-2-yl]phenyl]-3-methylthiourea]
The IC50 of the first is 1.5-fold lower: 0.00717 µM for the first, 0.011 µM for the second.

Compared with C[C@H]1COCCN1c1cc(C(C)(C)S(C)(=O)=O)nc(-c2ccc(NC(=S)NCCN(C)C)cc2)n1 [Example 2d, 3-(2-dimethylaminoethyl)-1-[4-[4-[(3S)-3-methylmorpholin-4-yl]-6-(2-methylsulfonylpropan-2-yl)pyrimidin-2-yl]phenyl]thiourea], CCNC(=S)Nc1ccc(-c2nc(N3CCOC[C@@H]3C)cc(C(C)(C)S(C)(=O)=O)n2)cc1 [Example 2b, 3-ethyl-1-[4-[4-[(3S)-3-methylmorpholin-4-yl]-6-(2-methylsulfonylpropan-2-yl)pyrimidin-2-yl]phenyl]thiourea] is 45-fold lower in IC50: 0.305 µM for the first, 0.0068 µM for the second.

First: CNC(=S)Nc1ccc(-c2nc(N3CCOC[C@@H]3C)cc(C(C)(C)S(C)(=O)=O)n2)cc1 [Example 2a, 3-methyl-1-[4-[4-[(3S)-3-methylmorpholin-4-yl]-6-(2-methylsulfonylpropan-2-yl)pyrimidin-2-yl]phenyl]thiourea]
Second: C[C@H]1COCCN1c1cc(C(C)(C)S(=O)(=O)CCCO)nc(-c2ccc(NC(=S)NC3CC3)cc2)n1 [Example 4, 3-Cyclopropyl-1-[4-[4-[2-(3-hydroxypropylsulfonyl)propan-2-yl]-6-[(3S)-3-methylmorpholin-4-yl]pyrimidin-2-yl]phenyl]thiourea]
The IC50 of the first is 32-fold lower: 0.0051 µM for the first, 0.161 µM for the second. The first is the more potent here.

Compared with C[C@H]1COCCN1c1cc(CS(C)(=O)=O)nc(-c2ccc(NC(=S)Nc3ccc(F)cc3)cc2)n1 [Example 1d, 3-(4-fluorophenyl)-1-[4-[4-[(3S)-3-methylmorpholin-4-yl]-6-(methylsulfonylmethyl)pyrimidin-2-yl]phenyl]thiourea], COc1ccc(NC(=S)Nc2ccc(-c3nc(CS(C)(=O)=O)cc(N4CCOC[C@@H]4C)n3)cc2)cc1 [Example 1c, 3-(4-methoxyphenyl)-1-[4-[4-[(3S)-3-methylmorpholin-4-yl]-6-(methylsulfonylmethyl)pyrimidin-2-yl]phenyl]thiourea] is 3.2-fold higher in IC50: 0.0215 µM for the first, 0.0688 µM for the second.

First: C[C@H]1COCCN1c1cc(C(C)(C)S(=O)(=O)c2ccccc2)nc(-c2ccc(NC(=S)NCCO)cc2)n1 [Example 3c, 1-[4-[4-[2-(benzenesulfonyl)propan-2-yl]-6-[(3S)-3-methylmorpholin-4-yl]pyrimidin-2-yl]phenyl]-3-(2-hydroxyethyl)thiourea]
Second: CCNC(=S)Nc1ccc(-c2nc(N3CCOC[C@@H]3C)cc(C(C)(C)S(=O)(=O)c3ccccc3)n2)cc1 [Example 3b, 1-[4-[4-[2-(benzenesulfonyl)propan-2-yl]-6-[(3S)-3-methylmorpholin-4-yl]pyrimidin-2-yl]phenyl]-3-ethylthiourea]
The IC50 of the first is 4-fold lower: 0.00308 µM for the first, 0.0124 µM for the second.

Compared with C[C@H]1COCCN1c1cc(C(C)(C)O)nc(-c2ccc(NC(=S)NCCO)cc2)n1 [Example 5, 3-(2-Hydroxyethyl)-1-[4-[4-(2-hydroxypropan-2-yl)-6-[(3S)-3-methylmorpholin-4-yl]pyrimidin-2-yl]phenyl]thiourea], C[C@H]1COCCN1c1cc(C(C)(C)S(=O)(=O)CCCO)nc(-c2ccc(NC(=S)NCCO)cc2)n1 [Example 4a, 3-(2-hydroxyethyl)-1-[4-[4-[2-(3-hydroxypropylsulfonyl)propan-2-yl]-6-[(3S)-3-methylmorpholin-4-yl]pyrimidin-2-yl]phenyl]thiourea] is 2-fold higher in IC50: 0.0079 µM for the first, 0.0155 µM for the second.

From US8138183B2, “Morpholino pyrimidine derivatives used in diseases linked to mTOR kinase and/or PI3K” (AstraZeneca AB, priority 2007, dated 2012)
